Assay results taken from US20090233999A1, “COMPOSITIONS AND THERAPEUTIC METHODS INVOLVING ISOFLAVONES AND ANALOGUES THEREOF” (NOVOGEN RESEARCH PTY LTD, priority 1999, published 2009).

Assays:
TNFα = assay: UVB psoriasis model: cutaneous TNFα by ELISA; assay type: in vivo, mouse; conditions: for suppression of UVB-induced TNF-α level: 40 μM topical
From the text: (§1) Inbred, 6-8 weeks of age female C57/BL6, C3H/HeN and Skh:hr-1 (hairless) mice were fed normal stock rodent rations and tap water ad libitum. One day prior to UVB irradiation, the dorsal hair of C57/BL6 and C3H/HeN mice was removed by clipping. A single UVB tube (Phillips TL-40W/12 RS, Eindhoven, The Netherlands) emitting a spectrum of 280-365 nm with a peak emission at 310 nm, was used as the light source for the experiments. The radiation was filtered through a sheet of 0.125 mm cellulose acetate (Grafix Plastics, OH, USA) to block wavelengths below 290 nm. Irradiance was measured with an IL 1500 radiometer (International Light Inc. Newburyport, Mass.) with a UVB detector (SEE 240/UVB) calibrated to the spectral output, and recorded as 1.71×10-4 W/cm2. Groups of three female C57/BL6 and C3H/HeN mice were exposed unrestrained in their cages to 7.24 kJ/m2 UVB radiation equal to 3× the minimal erythemal dose (MED) in these haired mice (fur clipped), an exposure of approximately 70 min. Control mice were clipped of fur in the same manner but were not exposed to UVB irradiation. Groups of 3 Skh:hr-1 mice received 3.59 kJ/m2 of UVB, which is equal to 3×MED on hairless mouse skin. Temperature under the radiation source was stabilised during the exposures with surrounding curtains and an electric fan.
Cpd. 18 was dissolved as a 40 mM stock solution in DMSO, then diluted in a vehicle of propylene glycol-ethanol-water 1:2:1 to provide solutions of 0, 5, 10, 20 and 40 μM with […]. The vehicle control base lotion contained 0.001% DMSO. An aliquot of 100 μL of lotion was applied to the dorsum of three mice immediately, 1 h and 2 h after UVB irradiation for 24 h time point measurements, or once daily immediately after and for up to the next four days following irradiation, for later time points, and was spread evenly using a micropipette. Control mice were restrained in the same manner but were not exposed to UVB irradiation.
To determine the effect of UVB irradiation on cutaneous TNFα expression, groups of three C57/BL6 and C3H/HeN mice were euthanased before and at several time points up to 72 h following UVB irradiation, with and without topical treatment with 20 μM Cpd. 18, and the mid-dorsal skin was excised. […] Colour development was stopped after 30 min with 50 μL of 1M H2SO4, and quantitated spectrophotometrically at 405 nm. […]

[1] = tested on: TNFα, IL-6 and P-cadherin mRNAs; assay: UVB psoriasis model: RT-PCR of TNF-α, IL-6 and P-cadherin mRNAs in skin; assay type: in vivo, mouse; conditions: 20 μM lotion topical at 0, 1 and 2 h post-irradiation
From the text: as §1
Cpd. […]

**Q.** What does the source list for `COc1ccc(C2=Cc3ccc(O)cc3OC2)cc1OC` [Cpd. 18, 7-Hydroxy-3′,4′-dimethoxyisoflav-3-ene]?
**A.** suppression of UVB-induced TNF-α level (TNFα; C3H/HeN, 3 h post-UVB): 40%; suppression of UVB-induced TNF-α level (TNFα; C57/BL6, 3 h post-UVB): 45%; UVB-elevated TNFα levels (TNFα; 5-40 μM, dose-dependent, each mouse strain, 3 h post-UVB): significantly reduced; TNFα expression, lotion alone (TNFα; without UVB): no effect; production of TNFα, IL-6 and P-cadherin mRNAs post-UVB [1]: markedly reduced
